Measured values reported in the NIST ThermoML archive (doi:10.1021/acs.jced.8b01135).

Experiment: xn = mol fraction of the nth substance listed
Conditions: 102 kPa, Liquid; for speed of sound: Frequency=3 MHz, Single path-length method; for mass density: Vibrating tube method; for viscosity: Concentric cylinders viscometry

CCCCCCCCCCC1CCCCC1 [decylcyclohexane] + CCCCCCCCCCCC
Conditions	mass density [kg/m3]	speed of sound [m/s]	viscosity [mPa·s]
288.15 K, x1 = 0.1003	760.76	1329.7	–
288.15 K, x1 = 0.2194	770.26	1344	–
288.15 K, x1 = 0.3002	776.43	1353.5	–
288.15 K, x1 = 0.4004	783.8	1364.7	–
288.15 K, x1 = 0.4999	790.8	1375.6	–
288.15 K, x1 = 0.5993	797.51	1386.2	–
288.15 K, x1 = 0.7001	804.03	1396.3	–
288.15 K, x1 = 0.8005	810.28	1406.3	–
288.15 K, x1 = 0.8991	816.18	1415.8	–
288.15 K, x1 = 1	821.93	1425.2	–
293.15 K, x1 = 0.1003	757.16	1310.3	1.7
293.15 K, x1 = 0.2194	766.69	1324.7	1.98
293.15 K, x1 = 0.3002	772.89	1334.2	2.19
293.15 K, x1 = 0.4004	780.28	1345.7	2.48
293.15 K, x1 = 0.4999	787.31	1356.6	2.82
293.15 K, x1 = 0.5993	794.05	1367.1	3.2
293.15 K, x1 = 0.7001	800.58	1377.5	3.64
293.15 K, x1 = 0.8005	806.85	1387.5	4.13
293.15 K, x1 = 0.8991	812.78	1397.1	4.68
293.15 K, x1 = 1	818.54	1406.4	5.34
298.15 K, x1 = 0.1003	753.56	1290.9	–
298.15 K, x1 = 0.2194	763.13	1305.4	–
298.15 K, x1 = 0.3002	769.34	1315	–
298.15 K, x1 = 0.4004	776.76	1326.8	–
298.15 K, x1 = 0.4999	783.81	1337.8	–
298.15 K, x1 = 0.5993	790.58	1348.6	–
298.15 K, x1 = 0.7001	797.13	1358.8	–
298.15 K, x1 = 0.8005	803.42	1368.8	–
298.15 K, x1 = 0.8991	809.36	1378.5	–
298.15 K, x1 = 1	815.16	1387.7	–
303.15 K, x1 = 0.1003	749.96	1271.8	1.43
303.15 K, x1 = 0.2194	759.57	1286.4	1.65
303.15 K, x1 = 0.3002	765.8	1296	1.79
303.15 K, x1 = 0.4004	773.24	1308.1	2.02
303.15 K, x1 = 0.4999	780.31	1319.1	2.27
303.15 K, x1 = 0.5993	787.1	1329.7	2.55
303.15 K, x1 = 0.7001	793.68	1340.2	2.88
303.15 K, x1 = 0.8005	799.99	1350.4	3.23
303.15 K, x1 = 0.8991	805.95	1360.1	3.63
303.15 K, x1 = 1	811.78	1369.1	4.09
313.15 K, x1 = 0.1003	742.75	1234.1	1.21
313.15 K, x1 = 0.2194	752.43	1248.9	1.39
313.15 K, x1 = 0.3002	758.71	1258.7	1.49
313.15 K, x1 = 0.4004	766.19	1271	1.67
313.15 K, x1 = 0.4999	773.32	1282.2	1.87
313.15 K, x1 = 0.5993	780.16	1292	2.08
313.15 K, x1 = 0.7001	786.78	1303.7	2.33
313.15 K, x1 = 0.8005	793.13	1313.9	2.6
313.15 K, x1 = 0.8991	799.14	1323.7	2.89
313.15 K, x1 = 1	805.02	1332.8	3.23
323.15 K, x1 = 0.1003	735.51	1197.2	1.04
323.15 K, x1 = 0.2194	745.28	1212.3	1.19
323.15 K, x1 = 0.3002	751.59	1222.1	1.29
323.15 K, x1 = 0.4004	759.13	1234.7	1.41
323.15 K, x1 = 0.4999	766.31	1246	1.56
323.15 K, x1 = 0.5993	773.2	1257	1.73
323.15 K, x1 = 0.7001	779.88	1267.7	1.92
323.15 K, x1 = 0.8005	786.28	1278.1	2.13
323.15 K, x1 = 0.8991	792.33	1288	2.35
323.15 K, x1 = 1	798.26	1297.2	2.6
333.15 K, x1 = 0.1003	728.24	1161.3	0.904
333.15 K, x1 = 0.2194	738.08	1176.5	1.02
333.15 K, x1 = 0.3002	744.46	1186.5	1.11
333.15 K, x1 = 0.4004	752.05	1199.1	1.2
333.15 K, x1 = 0.4999	759.29	1210.6	1.32
333.15 K, x1 = 0.5993	766.23	1221.8	1.46
333.15 K, x1 = 0.7001	772.96	1232.7	1.61
333.15 K, x1 = 0.8005	779.42	1243.2	1.78
333.15 K, x1 = 0.8991	785.51	1253.2	1.95
333.15 K, x1 = 1	791.49	1262.7	2.15
